Measurements: patent publication US20140357512A1, “HISTONE DEACETYLASE (HDAC) BIOMARKERS IN MULTIPLE MYELOMA” (priority 2013, published 2014)

System: human myeloma cell line MM.1S
Assay: SILAC acetylated-lysine peptide profiling, HDAC inhibitor vs DMSO (light/heavy ratio)
Type: cell-based
From the text: An embodiment of the invention comprises utilizing the SILAC method in order to quantitate changes in protein expression between two or more populations of cells. The SILAC method is a technique based on mass spectrometry that detects differences in protein abundance among samples using non-radioactive isotopic labeling. The SILAC method is known in the art, and described in detail in Ong et al., “Stable Isotope Labeling by Amino Acids in Cell Culture, SILAC, as a Simple and Accurate Approach to Expression Proteomics”, Molecular & Cellular Proteomics, vol. 1, pp. 376-386 (2002), which is incorporated herein by reference in its entirety.
Briefly, the SILAC method involves growing two populations of cells in cell culture. The first population of cells is grown in growth media containing normal amino acids (“normal media”). The second population of cells is grown in media lacking a standard essential amino acid (such as lysine), but is then supplemented with a non-radioactive, isotopically labeled form of that essential amino acid (such as lysine labeled with ^13C atoms, rather than normal ^12C atoms), which is called “heavy media”. When the two populations of cells are each growing in the medium, they incorporate the amino acids into all of their proteins. The growth of cells maintained in the heavy media is no different from that in normal media. All peptides containing the heavy amino acids are heavier than their normal counterparts. The cells from each of the two populations of cells are lysed. The lysates from each of the two cell populations are then combined. The combined cell lysates are then analyzed by mass spectrometry. Pairs of chemically identical peptides of different stable isotope composition can be differentiated in a mass spectrometer due to their difference in mass. The ratio of peak intensities in the mass spectrum for such peptide pairs reflects the abundance ratio for the two proteins.
This example describes SILAC studies that were performed to compare the effects of three different HDAC inhibitors (Compound A, Compound B, and tubastatin A) to a control on a human multiple myeloma cell line. The HDAC inhibitors were also compared amongst themselves to determine differences in their effects.
A human myeloma cell line MM.1S was grown using either ^12C (light) or ^13C (heavy) lysine containing culture medium. The “heavy” cells were treated with DMSO as the control, and the “light” cells were treated with a single HDAC inhibitor at 37° C. for 6 hours. The heavy and light cells were lysed, and the lysates were mixed in 1:1 ratio and digested with the protease trypsin. The acetylated lysine containing peptides (due to the action of the HDAC inhibitor) in the digested peptide pool were captured by a non-specific anti-acetylated lysine antibody cocktail (the antibodies identify both light and heavy acetylated peptides), and subjected to mass spectrometry analysis in order to identify thousands of individual peptides.
Thousands of peptides were identified in pairs (^12C and ^13C) due to their known mass differences. The amino acid sequence and quantitative ratio (Light/Heavy) of a given peptide in two differentially treated cell lysates were then determined and annotated with their possible protein (gene) sources.
As stated above, three HDAC inhibitors (Compound A, Compound B, and Tubastatin A) were used. Thus, the SILAC method was performed three times, with a different HDAC inhibitor compared to a control each time. Accordingly, there are three pairs of quantitative data in the table below, i.e., Compound A:DMSO, Compound B:DMSO, and Tubastatin A:DMSO. A cut-off of 1.30 fold of change (increase or decrease) was then used to determine “changed” or “+” in the table, and any peptides with a fold of change less than 1.3 fold were determined to be “unchanged” or “0” in the table. Those peptides that were not identified were marked as “NA” in the table. […]

For `O=C(CCCCCCNC(=O)c1cnc(N(c2ccccc2)c2ccccc2)nc1)NO` [Compound A, 2-(diphenylamino)-N-(7-(hydroxyamino)-7-oxoheptyl)pyrimidine-5-carboxamide], the “light to heavy ratio (L/H ratio) of acetylated peptide VVK(ac)QASEGPLK (SEQ ID NO: 597)” value (Glyceraldehyde-3-phosphate dehydrogenase [263], gene GAPDH, inhibitor:DMSO) was 0.45 log 2, the “light to heavy ratio (L/H ratio) of acetylated peptide AHLQK(ac)LMSDK (SEQ ID NO: 549)” value (Glycyl-tRNA synthetase [224], gene GARS, inhibitor:DMSO) was 0.39 log 2 and the “light to heavy ratio (L/H ratio), log 2 scale, acetylated peptide LLLLGAGESGK(ac)STIVK (SEQ ID NO: 769)” value (Guanine nucleotide-binding protein G(olf) subunit alpha [55], gene GNAL, drug:DMSO) was 0.97. For the same molecule, the “L/H ratio of acetylated peptide AGGK(ac)AGK(ac)DSGK (SEQ ID NO: 15)” value (H2AFV [5:8], log 2 scale, drug vs DMSO) was 1.00, the “light to heavy ratio (L/H ratio) of acetylated peptide TLAMDVMK(ac)PR (SEQ ID NO: 501)” value (H(+)/CI(−) exchange transporter 5 [587], gene CLCN5, inhibitor:DMSO) was −0.76 log 2 and the “light to heavy ratio (L/H ratio) of acetylated peptide FSPDDK(ac)YSR (SEQ ID NO: 504)” value (H/ACA ribonucleoprotein complex subunit 3 [40], gene NOP10, inhibitor:DMSO) was −0.68 log 2. For the same molecule, the “L/H ratio of acetylated peptide GQQQVFK(ac)GLNDK (SEQ ID NO: 41)” value (HADHA [406], log 2 scale, drug vs DMSO) was 0.00, the “L/H ratio of acetylated peptide” value (HGMK(ac)VVLISR (SEQ ID NO: 494), Estradiol 17-beta-dehydrogenase 12 [76], HSD17B12) was −1.00 log 2 and the “L/H ratio of acetylated peptide PDPAK(ac)SAPAPK(ac)K (SEQ ID NO: 16)” value (HIST1H2BO [6:12], log 2 scale, drug vs DMSO) was 1.00. For the same molecule, the “light to heavy ratio (L/H ratio) of acetylated peptide SLNLK(ac)HIK (SEQ ID NO: 607)” value (HLA-B associated transcript 1 [188], gene SNORD84, DDX39B, inhibitor:DMSO) was 0.46 log 2, the “L/H ratio of acetylated peptide K(ac)[…] (SEQ ID NO: 42)” value (HMGB2 [30], log 2 scale, drug vs DMSO) was 0.00 and the “L/H ratio of acetylated peptide RGEEGHDPK(ac)EPEQLR (SEQ ID NO: 43)” value (HNRNPA3 [29], log 2 scale, drug vs DMSO) was 0.00. The “L/H ratio of acetylated peptide […](ac)WQSLK (SEQ ID NO: 44)” value (HNRNPM [83], log 2 scale, drug vs DMSO) was 0.00, the “L/H ratio of acetylated peptide AAEVLNK(ac)HSLSGRPLK (SEQ ID NO: 3)” value (HNRNPM [134], log 2 scale, drug vs DMSO) was 0.00 and the “L/H ratio of acetylated peptide VK(ac)VLFVR (SEQ ID NO: 45)” value (HNRNPR [341], log 2 scale, drug vs DMSO) was 0.00. The “L/H ratio of acetylated peptide […](ac)YSR (SEQ ID NO: 46)” value (HNRNPU [246], log 2 scale, drug vs DMSO) was 0.00, the “L/H ratio of acetylated peptide TTWVTK(ac)HAAENPGK (SEQ ID NO: 47)” value (HNRNPU [497], log 2 scale, drug vs DMSO) was 0.00 and the “L/H ratio of acetylated peptide NK(ac)EIFLR (SEQ ID NO: 52)” value (HSP90B1 [97], log 2 scale, drug vs DMSO) was 0.00. For the same molecule, the “L/H ratio of acetylated peptide […](ac)IR (SEQ ID NO: 49)” value (HSP90B1 [114], log 2 scale, drug vs DMSO) was 0.00, the “L/H ratio of acetylated peptide EELVK(ac)NLGTIAK (SEQ ID NO: 48)” value (HSP90B1 [161], log 2 scale, drug vs DMSO) was 0.00 and the “L/H ratio of acetylated peptide ETLQQHK(ac)LLK (SEQ ID NO: 50)” value (HSP90B1 [455], log 2 scale, drug vs DMSO) was 0.00. The “L/H ratio of acetylated peptide IADDK(ac)YNDTFWK (SEQ ID NO: 51)” value (HSP90B1 [479], log 2 scale, drug vs DMSO) was 0.00, the “L/H ratio of acetylated peptide […](ac)R (SEQ ID NO: 54)” value (HSPA5 [96], log 2 scale, drug vs DMSO) was 0.00 and the “L/H ratio of acetylated peptide […](ac)R (SEQ ID NO: 53)” value (HSPA5 [213], log 2 scale, drug vs DMSO) was 0.00. For the same molecule, the “L/H ratio of acetylated peptide […](ac)R (SEQ ID NO: 55)” value (HSPA8 [71], log 2 scale, drug vs DMSO) was 0.00, the “light to heavy ratio (L/H ratio) of acetylated peptide […](ac)R (SEQ ID NO: 267)” value (Heat shock 70 kDa protein 1A/1B [71], HSPA1B, HSPA1A, drug:DMSO) was 0.44 log 2 and the “light to heavy ratio (L/H ratio), log 2 scale, acetylated peptide TEMDWVLK(ac)[…] (SEQ ID NO: 797)” value (Heterogeneous nuclear ribonucleoprotein F [98], gene HNRNPF, drug:DMSO) was 1.00. The “light to heavy ratio (L/H ratio) of acetylated peptide LLLFK(ac)TFSR (SEQ ID NO: 514)” value (Heterogeneous nuclear ribonucleoprotein U-like protein 2 [553], gene HNRNPUL2, inhibitor:DMSO) was −0.57 log 2, the “light to heavy ratio (L/H ratio) of acetylated peptide YEK(ac)DIAAYR (SEQ ID NO: 595)” value (High mobility group protein B2 [157], gene HMGB2, inhibitor:DMSO) was 0.45 log 2 and the “light to heavy ratio (L/H ratio), log 2 scale, acetylated peptide AGK(ac)DSGK(ac)AK (SEQ ID NO: 786)” value (Histone H2A.V [8:12], gene H2AFV, drug:DMSO) was 1.00. For the same molecule, the “light to heavy ratio (L/H ratio), log 2 scale, acetylated peptide GSK(ac)K(ac)AITK (SEQ ID NO: 790)” value (Histone H2B type 1-B [16:17], gene HIST1H2BB, drug:DMSO) was 1.00, the “light to heavy ratio (L/H ratio), log 2 scale, acetylated peptide PEPTK(ac)SAPAPK(ac)K (SEQ ID NO: 791)” value (Histone H2B type 1-D [6:12], gene HIST1H2BD, drug:DMSO) was 1.00 and the “light to heavy ratio (L/H ratio), log 2 scale, acetylated peptide GSK(ac)K(ac)AINK (SEQ ID NO: 792)” value (Histone H2B type 1-M [16:17], gene HIST1H2BM, drug:DMSO) was 1.00. For the same molecule, the “light to heavy ratio (L/H ratio), log 2 scale, acetylated peptide K(ac)AINK(ac)AQK (SEQ ID NO: 793)” value (Histone H2B type 1-M [17:21], gene HIST1H2BM, drug:DMSO) was 1.00 and the “light to heavy ratio (L/H ratio) of acetylated peptide PEPAK(ac)SAPAPK(ac)K (SEQ ID NO: 309)” value (Histone H2B type 2-E [6:12], HIST2H2BE, drug:DMSO) was 1.00 log 2.
